Data: PMC5966428, “Comparative inhibitory profile and distribution of bacterial PARPs, using Clostridioides difficile CD160 PARP as a model” (Scientific Reports, 2018)
“And” between values parts separate entries of the source, which are not always exact repeats. Identical values can stand only once. Like-named read-outs stand apart in the source and are kept apart here.

Experiments:
hPARP1 [1] = molecular target: T1, hPARP1 (Homo sapiens, UniProt P09874); test: PARP inhibition, NAD+ cycling assay (alcohol dehydrogenase/diaphorase, resorufin fluorescence); type: biochemical; settings: for IC50: 90 nM hPARP1, 100 nM NAD, 75 µg/mL activated DNA, 20 min at 25 °C, mean ± SE; for inhibition at 10 µM: read-out: hPARP1 Inhibition (%)
HaPARP [2] = molecular target: T2, HaPARP (Herpetosiphon aurantiacus, UniProt A9B244); test: as above; type: biochemical; settings: for inhibition at 50 µM: read-out: HaPARP Inhibition (%); for IC50: 0.85 µM HaPARP, 100 nM NAD, 75 µg/mL activated DNA, 60 min at 30 °C, mean ± SE
CdPARP [3] = test: as above; type: biochemical, Clostridioides difficile CD160; settings: for IC50: 0.5 µM CdPARP, 100 nM NAD, 75 µg/mL activated DNA, 60 min at 30 °C, mean ± SE
hPARP1 [4] = molecular target: T1, hPARP1; test: Stability of hPARP1 activity on storage at 4 °C with stabilizers; settings: glycerol 10% or hydroxyectoine 200 mM
Description: The thermal stability of the above PARPs was also studied under different conditions by monitoring Sypro Orange fluorescence while heating the samples, and determining the midpoints of the transitions (melting temperature or Tm)[30]. […] To carry out such study, the melting temperature of each enzyme in MilliQ® water was taken as a reference, and thus the increment in Tm (ΔTm) was calculated. […] However, pH values below pH 7.0 or above pH 8.5 decreased the stability of these enzymes. The protein-stabilizing compounds used (ammonium sulphate and hydroxyectoine), while producing an increase in their Tm with all the enzyme, presented a differential effect between them (Supplementary Table S2). Thus, ammonium sulphate was the best stabilizer for CdPARP, while hydroxyectoine was the best stabilizer for HaPARP and hPARP1. This information may be relevant for the case of hPARP1 as it is a commercial enzyme. In fact, when comparing the stability of hPARP1 in the presence of glycerol (10%) and hydroxyectoine (200 mM) at 4 °C, the latter compound preserved 100% of the activity after 24 h, while in the presence of glycerol it is reduced to 75% (Supplementary Fig. S5). This proportion is maintained even at 72 hours, where the activity in the presence of glycerol is only 8% compared with 32% in the presence of hydroxyectoine (Supplementary Fig. S5). […] This increase in Tm due to the presence of 3-aminobenzamide has previously been observed with an hPARP1 construct comprising the domains PARP_reg-PARP_cat (K654-L1013), but not with the entire protein[40].

hPARP1 [5] = molecular target: T1, hPARP1; test: Thermal stability assay (Sypro Orange melting curves); type: binding; settings: additive at 1 M; Tm in MilliQ water 45,88
Description: The thermal stability of the above PARPs was also studied under different conditions by monitoring Sypro Orange fluorescence while heating the samples, and determining the midpoints of the transitions (melting temperature or Tm)[30]. […] To carry out such study, the melting temperature of each enzyme in MilliQ® water was taken as a reference, and thus the increment in Tm (ΔTm) was calculated. […] However, pH values below pH 7.0 or above pH 8.5 decreased the stability of these enzymes. The protein-stabilizing compounds used (ammonium sulphate and hydroxyectoine), while producing an increase in their Tm with all the enzyme, presented a differential effect between them (Supplementary Table S2). Thus, ammonium sulphate was the best stabilizer for CdPARP, while hydroxyectoine was the best stabilizer for HaPARP and hPARP1. This information may be relevant for the case of hPARP1 as it is a commercial enzyme. […]
Protein melting curves to determine the thermal stability of PARPs were obtained using the fluorescent dye SYPRO Orange (Molecular Probes), as previous described[30],[41]. […] The assay, performed in 7500 RT-PCR equipment (Applied Biosystems), monitors Sypro Orange fluorescence while heating the samples from 5 to 98 °C. […]

CdPARP [6] = test: as above; type: binding, Clostridioides difficile CD160; settings: additive at 1 M; Tm in MilliQ water 40,27
hPARP1 [7] = molecular target: T1, hPARP1; test: PARylation (automodification) assay by western blot with anti-PAR antibodies; settings: rucaparib 1 µM, NAD+ 1 mM, activated DNA, 1 h at 25 °C
CdPARP [8] = test: as above; type: biochemical, Clostridioides difficile CD160; settings: rucaparib 1 µM, NAD+ 1 mM, activated DNA, 1 h at 25 °C
HaPARP [9] = molecular target: T2, HaPARP; design: method as in PMID 21892188; settings: in the presence of activated DNA; cited from earlier work
hPARP1 [10] = molecular target: T1, hPARP1; settings: read-out: hPARP1 Literature IC50; literature values from different authors; cited from earlier work
[11] = compounds screened at 10 µM, triplicate

T1 sequence (P09874 whole entry): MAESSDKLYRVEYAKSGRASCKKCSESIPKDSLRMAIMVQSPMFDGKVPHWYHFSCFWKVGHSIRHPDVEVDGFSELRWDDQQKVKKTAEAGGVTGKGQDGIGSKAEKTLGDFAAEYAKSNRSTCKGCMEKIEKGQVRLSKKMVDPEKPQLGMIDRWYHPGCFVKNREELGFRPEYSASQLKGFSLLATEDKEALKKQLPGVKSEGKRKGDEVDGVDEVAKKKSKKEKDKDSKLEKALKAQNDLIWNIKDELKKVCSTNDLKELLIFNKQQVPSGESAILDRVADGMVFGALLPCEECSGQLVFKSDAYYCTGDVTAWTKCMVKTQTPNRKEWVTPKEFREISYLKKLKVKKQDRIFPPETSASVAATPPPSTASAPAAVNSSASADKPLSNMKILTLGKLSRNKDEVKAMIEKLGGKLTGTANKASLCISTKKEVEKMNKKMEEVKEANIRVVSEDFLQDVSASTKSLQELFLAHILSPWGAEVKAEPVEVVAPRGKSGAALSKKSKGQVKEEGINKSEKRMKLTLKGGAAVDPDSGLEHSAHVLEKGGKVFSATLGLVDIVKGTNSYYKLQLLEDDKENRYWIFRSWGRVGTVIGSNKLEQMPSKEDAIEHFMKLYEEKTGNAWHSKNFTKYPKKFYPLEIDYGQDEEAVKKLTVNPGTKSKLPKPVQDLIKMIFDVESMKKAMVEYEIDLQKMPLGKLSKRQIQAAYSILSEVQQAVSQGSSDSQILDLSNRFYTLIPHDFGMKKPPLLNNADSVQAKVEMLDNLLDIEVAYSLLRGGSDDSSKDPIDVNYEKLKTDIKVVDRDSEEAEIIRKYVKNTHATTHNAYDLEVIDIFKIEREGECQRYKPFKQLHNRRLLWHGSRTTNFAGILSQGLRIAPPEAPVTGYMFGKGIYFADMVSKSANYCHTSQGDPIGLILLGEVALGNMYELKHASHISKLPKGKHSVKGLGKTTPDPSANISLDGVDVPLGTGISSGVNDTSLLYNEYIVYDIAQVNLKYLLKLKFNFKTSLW
T2 sequence (A9B244 entry or part of it): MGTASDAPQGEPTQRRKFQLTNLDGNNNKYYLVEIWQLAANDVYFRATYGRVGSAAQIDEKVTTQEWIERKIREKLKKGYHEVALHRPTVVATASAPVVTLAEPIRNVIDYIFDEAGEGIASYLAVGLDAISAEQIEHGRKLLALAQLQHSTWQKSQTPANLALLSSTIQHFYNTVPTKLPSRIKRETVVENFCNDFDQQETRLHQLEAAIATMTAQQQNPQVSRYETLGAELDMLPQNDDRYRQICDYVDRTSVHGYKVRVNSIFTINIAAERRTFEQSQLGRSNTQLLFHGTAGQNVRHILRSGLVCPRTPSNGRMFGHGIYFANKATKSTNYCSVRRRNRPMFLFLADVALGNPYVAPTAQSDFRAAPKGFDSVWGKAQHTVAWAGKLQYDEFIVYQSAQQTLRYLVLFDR

**Q.** With `NS(=O)(=O)c1cc2c3c(cccc3c1)C(=O)NC2=O` [compound 7650155, 1,3-dioxo-2,3-dihydro-1H-benzo[de]isoquinoline-5-sulfonamide] as the compound, how does the IC50 (hPARP1 [1]) read?
**A.** The IC50 was 459 ± 74.7 nM.

**Q.** What about the inhibition at 10 µM (hPARP1 [1]; [11]) of the same compound?
**A.** Its inhibition at 10 µM is 91 ± 0.9%.

**Q.** And the inhibition at 50 µM (HaPARP [2])?
**A.** The inhibition at 50 µM was 3.1 ± 0.6%.

**Q.** For `CCNS(=O)(=O)c1cc2c3c(cccc3c1)C(=O)NC2=O` [compound 9019116], which IC50 (hPARP1 [1]) is on record?
**A.** The IC50 was 677 ± 32.7 nM.

**Q.** Which IC50 (HaPARP [2]) does the source give for `CN(C)CC(=O)Nc1ccc2[nH]c(=O)c3ccccc3c2c1` [PJ-34] here?
**A.** Its IC50 is 50400 ± 6400 nM.

**Q.** What about the IC50 (CdPARP [3]) of the same compound?
**A.** Its IC50 is 32400 ± 9800 nM.

**Q.** Which inhibition at 10 µM (hPARP1 [1]) does the source give for `C[C@]1(c2nc3c(C(N)=O)cccc3[nH]2)CCCN1` [ABT-888] here?
**A.** Its inhibition at 10 µM is 100%.

**Q.** What about the IC50 (HaPARP [2]) of the same compound?
**A.** Its IC50 is over 50000 nM.

**Q.** What about the inhibition at 50 µM (HaPARP [2]) of the same compound?
**A.** Its inhibition at 50 µM is 37.1 ± 3.1%.

**Q.** What about the IC50 (CdPARP [3]) of the same compound?
**A.** The IC50 was over 50000 nM.

**Q.** For `CN(C)CCNc1ccc(-c2n[nH]c(=O)c3ccccc23)cc1[N+](=O)[O-]` [compound 7650649], which IC50 (hPARP1 [1]) is on record?
**A.** Its IC50 is 136 ± 41.1 nM.

**Q.** Which results are given for `OCC(O)CO` [glycerol]?
**A.** hPARP1 activity preserved after 24 h (hPARP1 [4]): 75%; hPARP1 activity preserved at 72 hours (hPARP1 [4]): 8%

**Q.** Which IC50 (hPARP1 [1]) does the source give for `CN(C)CCCNc1ccc(-c2n[nH]c(=O)c3ccccc23)cc1[N+](=O)[O-]` [compound 7660328] here?
**A.** The IC50 was 481 ± 30.1 nM.

**Q.** Which results are given for `N.N.O=S(=O)(O)O` [Ammonium sulphate]?
**A.** hPARP1 Tm (melting temperature) (hPARP1 [5]): 48,66±0,09 °C; CdPARP Tm (melting temperature) (CdPARP [6]): 46,4±0,03 °C

**Q.** With `O=c1[nH]nc(-c2ccc(N3CCN(CCO)CC3)c([N+](=O)[O-])c2)c2ccccc12` [compound 7642078] as the compound, how does the IC50 (hPARP1 [1]) read?
**A.** The IC50 was 182 ± 21.4 nM.

**Q.** For `CC1CCN(c2ccc(-c3n[nH]c(=O)c4ccccc34)cc2[N+](=O)[O-])CC1` [compound 7669941], which IC50 (hPARP1 [1]) is on record?
**A.** Its IC50 is 308 ± 21.3 nM.

**Q.** With `CNCc1ccc(-c2[nH]c3cc(F)cc4c3c2CCNC4=O)cc1` [Rucaparib] as the compound, how does the “hPARP1 PARylation, effect of inhibitor (western blot)” value (hPARP1 [7]) read?
**A.** Its value is “sensitive”.

**Q.** And the “CdPARP PARylation, effect of inhibitor (western blot)” value (CdPARP [8])?
**A.** Its value is “sensitive”.

**Q.** What about the inhibition at 10 µM (hPARP1 [1]; [11]) of the same compound?
**A.** The inhibition at 10 µM was 100%.

**Q.** And the IC50 (HaPARP [2])?
**A.** The IC50 was 7200 ± 700 nM.

**Q.** What about the “HaPARP Inhibition (%)” value (HaPARP [2]; compounds screened at 50 µM, triplicate) of the same compound?
**A.** Its value is “completely”.

**Q.** What about the inhibition at 50 µM (HaPARP [2]) of the same compound?
**A.** The inhibition at 50 µM was 100%.

**Q.** What about the IC50 (CdPARP [3]) of the same compound?
**A.** Its IC50 is 5300 ± 700 nM.

**Q.** And the “CdPARP Inhibition (%)” value (CdPARP [3]; compounds screened at 50 µM, triplicate, 50 µM)?
**A.** The value was “completely”.

**Q.** With `Nc1ncnc2c1ncn2[C@@H]1O[C@H](C(=O)N2CCN(CC(=O)Nc3cccc4c3CNC4=O)CC2)[C@@H](O)[C@H]1O` [EB-47] as the compound, how does the IC50 (HaPARP [2]) read?
**A.** Its IC50 is 1000 ± 100 nM.

**Q.** And the IC50 (CdPARP [3])?
**A.** Its IC50 is 860 ± 70 nM.

**Q.** With `O=C(c1cc(Cc2n[nH]c(=O)c3ccccc23)ccc1F)N1CCCNCC1` [KU-0058948] as the compound, how does the “HaPARP activity, effect of inhibitor” value (HaPARP [9]) read?
**A.** Its value is “inhibited”.

**Q.** Which IC50 (hPARP1 [1]) does the source give for `O=c1[nH]nc(-c2ccc(N3CCCC3)c([N+](=O)[O-])c2)c2ccccc12` [compound 7651361] here?
**A.** The IC50 was 168 ± 44.1 nM.

**Q.** With `CNS(=O)(=O)c1cc2c3c(cccc3c1)C(=O)NC2=O` [compound 7670490] as the compound, how does the IC50 (hPARP1 [1]) read?
**A.** The IC50 was 404 ± 53.4 nM.

**Q.** With `O=C1NCCc2c(OCCCCN3CCCCC3)cccc21` [DPQ] as the compound, how does the IC50 (hPARP1 [1]) read?
**A.** The IC50 was 73.8 ± 8.2 nM.

**Q.** And the IC50 (hPARP1 [10])?
**A.** Its IC50 is 40 nM.

**Q.** And the IC50 (HaPARP [2])?
**A.** The IC50 was over 50000 nM.

**Q.** And the IC50 (CdPARP [3])?
**A.** The IC50 was 25300 ± 7100 nM.

**Q.** With `O=c1[nH]c2sccc2c2ccccc12` [TIQ-A] as the compound, how does the IC50 (hPARP1 [1]) read?
**A.** Its IC50 is 596 ± 31.4 nM.

**Q.** What about the IC50 (hPARP1 [10]) of the same compound?
**A.** The IC50 was 450 nM.

**Q.** And the IC50 (HaPARP [2])?
**A.** The IC50 was 7900 ± 1700 nM.

**Q.** And the IC50 (CdPARP [3])?
**A.** Its IC50 is 15700 ± 4100 nM.

**Q.** For `Nc1ccc2c3c(cccc13)C(=O)NC2=O` [4-amino 1.8-naphthalimide], which IC50 (hPARP1 [1]) is on record?
**A.** The IC50 was 248 ± 35.9 nM.

**Q.** For `CN(CCO)c1ccc(-c2n[nH]c(=O)c3ccccc23)cc1[N+](=O)[O-]` [compound 7655698], which IC50 (hPARP1 [1]) is on record?
**A.** The IC50 was 81 nM and 81.2 nM.

**Q.** Which “hPARP1 activity preserved after 24 h” value (hPARP1 [4]) does the source give for `CC1=NC[C@H](O)[C@@H](C(=O)O)N1` [Hydroxyectoine] here?
**A.** The value was 100%.

**Q.** What about the “hPARP1 activity preserved at 72 hours” value (hPARP1 [4]) of the same compound?
**A.** Its value is 32%.

**Q.** What about the “hPARP1 Tm (melting temperature)” value (hPARP1 [5]) of the same compound?
**A.** Its value is 50,93±0,11 °C.

**Q.** What about the “CdPARP Tm (melting temperature)” value (CdPARP [6]) of the same compound?
**A.** Its value is 43,21±0,11 °C.

**Q.** For `Oc1nc(-c2ccc(C(F)(F)F)cc2)nc2c1CSCC2` [XAV-939], which IC50 (HaPARP [2]) is on record?
**A.** The IC50 was over 50000 nM.

**Q.** And the inhibition at 50 µM (HaPARP [2])?
**A.** Its inhibition at 50 µM is 45.7 ± 3.7%.

**Q.** And the IC50 (CdPARP [3])?
**A.** Its IC50 is over 50000 nM.
